Test results as given in EP3632468B1, “5-IODO-4-THIO-2'-DEOXYURIDINE FOR USE AS A RADIOSENSITIZER IN RADIOTHERAPY” (Uniwersytet Gdanski, priority 2018, dated 2020).

How the values were obtained:
Type in all cases: cell-based
[1] = test system: human dermal fibroblasts - HDFa line; experiment: MTT cytotoxicity assay, HDFa; conditions: ISdU 10^-8 to 10^-4 M, 24 h and 48 h incubation, no irradiation
Description: (§1) Cytotoxic activity was determined using the MTT assay after incubation of MCF-7 (CLS, Eppelheim) or HDFa (Gibco Invitrogen) cells with ISdU. The MCF-7 cells were grown in RPMI supplemented with 10% FBS and antibiotics (streptomycin and penicillin) at a concentration of 100 U·mL^-1. The HDFa cells were grown in DMEM supplemented with 10% FBS and antibiotics (streptomycin and penicillin) at the same concentration. Cells at a density of 4·10^3 per well were seeded into a 96-well plate and incubated (37°C, 5% CO2) for 24 h. Then, the medium was freshly changed, and the cells were treated with ISdU at concentrations of 0 (control), 10^-4, 5·10^-5, 10^-5, 10^-6, 10^-7 and 10^-8 M. Cells were incubated with ISdU for 24 h and 48 h. After this time, the aqueous MTT salt solution at a concentration of 4 mg·mL^-1 was added to each well. After 4 h of incubation, the medium was removed and 200 µL of dimethylsulfoxide (DMSO) was added to dissolve the formazan crystals. The absorbance was measured at 570 nm (with 660 nm taken as the reference) on an EnSpire microplate reader (PerkinElmer). […] The results were analyzed with the use of GraphPad Prism software. The statistical evaluation of treated samples and untreated controls was calculated using one-way analysis of variance (ANOVA) followed by […] multiple comparison test. […]

[2] = test system: MCF-7 cells (human breast cancer cells); experiment: Cytometric analysis of phosphorylation of histone H2A.X (double strand break marker); conditions: 10^-4 M ISdU 48 h
Description: One of the damages caused by ISdU are double strand break of DNA, whose molecular marker is phosphorylation of histone H2A.X. To confirm the application of the compound in radiotherapy, the cytometric analysis of phosphorylation of histone H2A.X, molecular marker of double strand break of DNA was carried out.
The MCF-7 cells (human breast cancer cells) were grown up in RPMI medium supplemented with 10 % FBS (fetal bovine serum) and antibiotics (penicillin and streptomycin) at a concertation of 100 U · ml^-1. The cells were treated with ISdU at the concentration of 10^-4 M and incubated (37°C, 5% CO2) for 48 h. Upon this time, plate cultures were X-ray irradiated with doses of 1 Gy and 2 Gy, using of e.g. Cellrad X-ray cabinet, Faxitron X-ray Corporation, and incubated for 1 h in the same condition. Next, the cells were detached with solution of Accutase (Life Technologies, UK), fixed and permeabilized (fixation and permeabilization was performed by the manufacturer's protocol FlowCellect™ Histone H2A.X Phosphorylation Assay Kit, Merck). Prepared cells were analyzed by cytometric using of e.g. Guava easyCyte™, Merck. The experiment was performed in triplicated. The non-treated cells were a control.

[3] = test system: human breast cancer cells - MCF-7 line; experiment: MTT cytotoxicity assay, MCF-7; conditions: MCF7, light or radiation study, 100 µM ISdU, 48 h incubation, no irradiation, read-out: MCF-7 cells viability compared to the control
Description: as §1

SMILES: O=c1[nH]c(=S)c(I)cn1[C@H]1C[C@H](O)[C@@H](CO)O1 [ISdU, 5-iodo-4-thio-2'-deoxyuridine]
- HDFa cell viability [1]: a statistically significant decrease in cell viability was not observed
- γH2A.X positive cells ([2]; 1 Gy X-ray, measured 1 h after irradiation (control 26.56 ± 1.14%)): 35.15 ± 1.48%
- γH2A.X positive cells ([2]; 2 Gy X-ray, measured 1 h after irradiation (control 49.38 ± 3.8%)): 60.25 ± 2.98%
- viability at 100 µM [3]: 91 ± 3%
